pIC50: −log10 of the molar value.
System: KRAS PDC multicell spheroid viability
Experiment: Anticancer human tumor 825966-067-R-J1-PDC patient-derived colon carcinoma cell line growth inhibition [KRAS2]
Conditions: for pIC50: curve of first compound; for viability, T/C: stronger effect = lower value
From the text: Multicellular complex tumor spheroid response to RAS pathway inhibitors in combination with a targeted agents in patient-derived cell lines with oncogenic KRAS variants from multiple cancer types
A high-throughput screen of multi-cell type tumor spheroids was designed to identify active combinations of targeted small molecules and KRAS pathway inhibitors. Complex spheroids include a stromal component modeled by human endothelial cells (HUVEC) and fibroblasts modeled by human mesenchymal stem cells (MSCs). The concentration ranges selected for each drug and investigational agent were based upon clinically achievable concentrations if the clinical Cmax of the agent was known.
Compounds. The drugs and investigational agents: BI-3406 (NSC825286), BAY-293 (NSC824723), batoprotafib (TNO155; NSC825523), sotorasib (AMG 510; NSC818433), MRTX1257 (NSC819558), elimusertib (BAY 1895344; NSC800525), molibresib (GSK525762; NSC774829), temuterkib (LY3214996; NSC803410), venetoclax (NSC766270), alisertib (NSC759677), olaparib (NSC753686), talazoparib (NSC767125), erdafitinib (NSC781556), ipatasertib (NSC767898), cabozantinib (NSC761068), nintedanib (NSC756659), abemaciclib (NSC768073), docetaxel (NSC628503), trametinib (NSC758246), and sapanisertib (NSC764658) were obtained from the National Cancer Institute (NCI) Developmental Therapeutics Program Chemical Repository. The FDA-approved anticancer drug set is available from the Developmental Therapeutics Program. […] The stock solutions were prepared in dimethyl sulfoxide (DMSO, Sigma-Aldrich, St. Louis, MO, cat. D2650) at 800-fold the tested concentration and stored at -70 degrees C prior to their use. All drugs and investigational agents were tested over a range starting from a high concentration at or near the clinical Cmax and decreasing in half-log increments. If the clinical Cmax for an agent had not been determined, the highest concentration tested was 10 microM.
Cell Culture. All cells were maintained in an incubator at 37 degrees C and 5% CO2 with 95% humidity. The PDC lines were cultured according to standard operating procedures established by the NCI PDMR (https://pdmr.cancer.gov/sops/default.htm). Briefly, all PDCs were thawed and cultured in Matrigel-coated flasks prepared with a working solution of 1X Ham's F-12 nutrient mix, without supplementation (Invitrogen, Waltham, MA, cat. 11765054), 100 U/mL penicillin-streptomycin (Invitrogen, cat. 15140122), and 2.5% Matrigel (Corning Inc., Corning, NY, cat. 354248) for the first three passages. All PDCs were cultured in complete DMEM/F-12 media containing advanced DMEM/F-12 (Invitrogen, cat. 12634028), 4.9% defined fetal bovine serum, heat inactivated (HyClone Laboratories Inc., Logan, UT, cat. SH30070.03HI), 389 ng/mL hydrocortisone (Sigma-Aldrich, cat. H4001), 9.7 ng/mL human EGF recombinant protein (Invitrogen, cat. PHG0313), 23.4 microg/mL adenine (Sigma-Aldrich, cat. A2786), 97.3 U/mL penicillin-streptomycin (Invitrogen, cat. 15140122), 1.9 mM L-glutamine (Invitrogen, cat. 25030081), and 9.7 microM Y-27632 dihydrochloride (Tocris Bioscience, Bristol, United Kingdom, cat. 1254). The PDCs were cultured in complete DMEM/F12 media without 9.7 microM Y-27632 dihydrochloride for at least two passages prior to the screen. The established cell line HOP-62 was cultured in RPMI 1640 medium, HEPES (Invitrogen, cat. 22400105) with 10% defined fetal bovine serum (HyClone Laboratories Inc., cat. SH30070.03) and 2 mM L-glutamine (Invitrogen, cat. 25030081). The pooled donor HUVEC were cultured in endothelial cell growth medium 2 (PromoCell, Heidelberg, Germany, cat. C-22011) and the hMSC were cultured in mesenchymal stem cell growth medium 2 (PromoCell, cat. C-28009). For all experiments, HUVEC and hMSC were used at passages </=5, while the malignant cell lines were used at passages </=15. […]

[1] = second compound 0.1 µM, first compound 0.00316 µM
[2] = second compound 0.1 µM, first compound 0.01 µM
[3] = second compound 0.1 µM, first compound 0.0316 µM
[4] = second compound 0.316 µM, first compound 0.00316 µM
[5] = second compound 0.316 µM, first compound 0.01 µM
[6] = second compound 0.316 µM, first compound 0.0316 µM
[7] = second compound 1 µM, first compound 0.00316 µM
[8] = second compound 1 µM, first compound 0.01 µM
[9] = second compound 1 µM, first compound 0.0316 µM
[10] = second compound 3.16 µM, first compound 0.00316 µM
[11] = second compound 3.16 µM, first compound 0.01 µM
[12] = second compound 3.16 µM, first compound 0.0316 µM
[13] = second compound 10 µM, first compound 0.00316 µM
[14] = second compound 10 µM, first compound 0.01 µM
[15] = second compound 10 µM, first compound 0.0316 µM
[16] = second compound 0.1 µM, first compound 0.1 µM
[17] = second compound 0.1 µM, first compound 0.316 µM
[18] = second compound 0.1 µM, first compound 1 µM
[19] = second compound 0.316 µM, first compound 0.1 µM
[20] = second compound 0.316 µM, first compound 0.316 µM
[21] = second compound 0.316 µM, first compound 1 µM
[22] = second compound 1 µM, first compound 0.1 µM
[23] = second compound 1 µM, first compound 0.316 µM
[24] = second compound 1 µM, first compound 1 µM
[25] = second compound 3.16 µM, first compound 0.1 µM
[26] = second compound 3.16 µM, first compound 0.316 µM
[27] = second compound 3.16 µM, first compound 1 µM
[28] = second compound 10 µM, first compound 0.1 µM
[29] = second compound 10 µM, first compound 0.316 µM
[30] = second compound 10 µM, first compound 1 µM
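Further: spheroids exposed to compounds for 7 days.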
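Wherever viability, T/C is given: 100% = DMSO vehicle control viability.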

Structure (SMILES) | pIC50 (second compound 0.1 µM) | pIC50 (second compound 0.316 µM) | pIC50 (second compound 1 µM) | pIC50 (second compound 3.16 µM) | pIC50 (second compound 10 µM) | viability, T/C [1] [%] | viability, T/C [2] [%] | viability, T/C [3] [%] | viability, T/C [4] [%] | viability, T/C [5] [%] | viability, T/C [6] [%] | viability, T/C [7] [%] | viability, T/C [8] [%] | viability, T/C [9] [%] | viability, T/C [10] [%] | viability, T/C [11] [%] | viability, T/C [12] [%] | viability, T/C [13] [%] | viability, T/C [14] [%] | viability, T/C [15] [%] | further results
CC(=O)Nc1cccc(-n2c(=O)n(C3CC3)c(=O)c3c(Nc4ccc(I)cc4F)n(C)c(=O)c(C)c32)c1 + CNCc1ccccc1-c1csc(C(C)Nc2nc(C)nc3cc(OC)c(OC)cc23)c1 | 7.62 | 7.56 | 7.77 | > 10.00 | > 10.00 | 107 | 92.9 | 35.7 | 108 | 106 | 42.9 | 92.2 | 78.5 | 18.1 | 0.36 | 0.15 | 0.26 | 0.11 | 0.12 | 0.17 | viability, T/C (second compound 0.1 µM, first compound 0.0001 µM): 89.5%; viability, T/C (second compound 0.1 µM, first compound 0.000316 µM): 107%; viability, T/C (second compound 0.1 µM, first compound 0.001 µM): 108%; viability, T/C (second compound 0.316 µM, first compound 0.0001 µM): 88.3%; viability, T/C (second compound 0.316 µM, first compound 0.000316 µM): 97.9%; viability, T/C (second compound 0.316 µM, first compound 0.001 µM): 105%; viability, T/C (second compound 1 µM, first compound 0.0001 µM): 96.1%; viability, T/C (second compound 1 µM, first compound 0.000316 µM): 98.2%; viability, T/C (second compound 1 µM, first compound 0.001 µM): 112%; viability, T/C (second compound 3.16 µM, first compound 0.0001 µM): 28.4%; viability, T/C (second compound 3.16 µM, first compound 0.000316 µM): 51.9%; viability, T/C (second compound 3.16 µM, first compound 0.001 µM): 16.4%; viability, T/C (second compound 10 µM, first compound 0.0001 µM): 0.16%; viability, T/C (second compound 10 µM, first compound 0.000316 µM): 0.14%; viability, T/C (second compound 10 µM, first compound 0.001 µM): 0.13%
CCN1CCN(Cc2ccc(Nc3ncc(F)c(-c4cc(F)c5nc(C)n(C(C)C)c5c4)n3)nc2)CC1 + CC1OCC2(CCN(c3cnc(Sc4ccnc(N)c4Cl)c(N)n3)CC2)C1N | < 6.00 | < 6.00 | < 6.00 | 6.07 | 7.19 | 121 | 110 | 102 | 105 | 115 | 96.7 | 105 | 113 | 112 | 95.2 | 96.7 | 98.1 | 72 | 84.8 | 72.4 | viability, T/C [16]: 129%; viability, T/C [17]: 143%; viability, T/C [18]: 124%; viability, T/C [19]: 139%; viability, T/C [20]: 135%; viability, T/C [21]: 74.4%; viability, T/C [22]: 130%; viability, T/C [23]: 164%; viability, T/C [24]: 87.3%; viability, T/C [25]: 117%; viability, T/C [26]: 150%; viability, T/C [27]: 39.2%; viability, T/C [28]: 36%; viability, T/C [29]: 18.4%; viability, T/C [30]: 10.7%
CC1COCCN1c1cc(-c2ccnn2C)c2ccnc(-c3ccn[nH]3)c2n1 (stereo not given) + COc1cc2nc(C)nc(NC(C)c3cc(N)cc(C(F)(F)F)c3)c2cc1OC1CCOC1 | < 5.50 | < 5.50 | 6.82 | 7.16 | 7.91 | – | 106 | 122 | – | 112 | 112 | – | 74.6 | 80.4 | – | 130 | 97.9 | – | 56.6 | 21.1 | viability, T/C [16]: 67.6%; viability, T/C [17]: 55%; viability, T/C [18]: 55.8%; viability, T/C (second compound 0.1 µM, first compound 3.16 µM): 40.1%; viability, T/C [19]: 58.3%; viability, T/C [20]: 58.1%; viability, T/C [21]: 52.7%; viability, T/C (second compound 0.316 µM, first compound 3.16 µM): 38.8%; viability, T/C [22]: 61.5%; viability, T/C [23]: 28.3%; viability, T/C [24]: 34.8%; viability, T/C (second compound 1 µM, first compound 3.16 µM): 27.1%; viability, T/C [25]: 27.4%; viability, T/C [26]: 27.5%; viability, T/C [27]: 23.9%; viability, T/C (second compound 3.16 µM, first compound 3.16 µM): 19.8%; viability, T/C [28]: 7.19%; viability, T/C [29]: 3.93%; viability, T/C [30]: 2.81%; viability, T/C (second compound 10 µM, first compound 3.16 µM): 0.97%

From PubChem BioAssay AID1963865 (Molecular Pharmacology Branch, DTP, NCI, 2024)
